Reference: US20220259235A1, “EGFR Inhibitor, Composition, and Preparation Method Therefor” (BETTA PHARMACEUTICALS CO., LTD, priority 2019, published 2022)

Legend:
EGFR Δ19del/T790M/C797S = EGFR Δ19del/T790M/C797S (Homo sapiens, UniProt P00533, T790M/C797S, form not given); assay: EGFR Δ19del/T790M/C797S kinase test (mobility shift, Caliper EZ Reader); type: biochemical; settings: kinase enzymatic activity
Experimental: Mobility variation analysis was performed to determine the affinity of the compound for EGFRΔ19del/T790M/C797S. The enzymatic reaction scheme is as follows:
1. Prepare 1* kinase buffer as follows:
2. Preparation of compound concentration gradient: The test compound was tested with an initial concentration of 3000 nM or 100 nM, diluted in a 384 source plate to a 100% DMSO solution with 100-fold final concentration, and the compound is 3-fold diluted with Precision to 10 concentrations. A dispenser Echo 550 was used to transfer 250 nL 100-fold final concentration of the compound to the target plate OptiPlate-384F.
3. Prepare 2.5-fold final concentration of kinase solution with 1×Kinase buffer;
4. Add 10 μL of 2.5-fold final concentration of kinase solution to the compound well and the positive control well; add 10 μL of 1×Kinase buffer to the negative control well.
5. Centrifuge at 1000 rpm for 30 seconds, shake the reaction plate for well mixation, and then incubate at room temperature for 10 minutes.
6. Prepare a mixture of ATP and Kinase substrate at 5/3-fold final concentration with 1×Kinase buffer.
7. Add 15 μL mixture of 5/3-fold final concentration of ATP and substrate to start reaction.
8. Centrifuge the 384-well plate at 1000 rpm for 30 seconds, shake it well and then incubate it at room temperature for corresponding time.
9. Add 30 μL of stop detection solution to stop the kinase reaction, centrifuge at 1000 rpm for 30 seconds, shake it well.
10. Read conversion rate with Caliper EZ Reader.
% Inhibition=((Conversion%_max−Conversion%_sample)/(Conversion%_max−Conversion%_min))*100
Wherein: Conversion%_sample is the sample conversion rate reading; Conversion%_min: Mean value of negative control wells, representing the conversion rate reading of wells without enzymatic activity; Conversion%_max: Mean value of positive control wells, representing the conversion rate reading of wells without compound inhibition.
The dose-effect curve was fitted with concentration log value as X-axis and percentage inhibition rate as Y-axis. Log (inhibitor) vs. Response—Variable Slope of GraphPad Prism 5 was used to fit the dose-effect curve to obtain IC50 value of enzymatic activity for each compound.
The calculation formula is as Y=Bottom (Top−Bottom)/(1+10^((LogIC50−X)*HillSlope)).
As illustrated in examples, IC50 value is within the following range for the compound of the present invention: “A” represents “IC50≤1nM”; “B” represents “1 nM<IC50≤100nM”.

Ba/F3-Δ19del/T790M/C797S = Ba/F3-Δ19del/T790M/C797S (Homo sapiens, UniProt P00533, T790M/C797S, cells depend on it, form not given); assay: Ba/F3-Δ19del/T790M/C797S cell proliferation assay (CellTiter Glo, 72 h); type: cell-based; settings: CTG, numeric values, read-out: BaF3 Δ19del/T790M/C797S IC50
Experimental: (§1) Cell line: Ba/F3 cells with stable overexpression of Δ19del/T790M/C797S or L858R/T790M/C797S mutant genes, named Ba/F3-Δ19del/T790M/C797S and Ba/F3-L858R/T790M/C797S, and A431 EGFR wild-type cell line.
(§2) RPMI 1640 and 10% FBS and 1% PS; _EM, 10% PBS and 1% PS
(§3) a) Dilute the test compound (20 mM stock solution) to 10 mM with 100% DMSO as the starting concentration, and then serially dilute 3 times with a “9+0” concentration in 96-well dilution plate (Cat #P-05525, Labcyte);
(§4) b) Dilute compound solution thereof to 1:100 in medium to prepare 10-fold working solution;
(§5) a) Centrifuge the growth cells in logarithmic phase at 1000 rpm for 5 minutes, resuspend the cells in culture medium, and then count the cells;
(§6) b) Inoculate the cells into a 96-well cell culture plate with a density of 2000 cells/well;
(§7) a) The compound prepared in Step 2 was added to a cell plate with 15 μL per well at final concentrations of 1000, 333, 111.1, 37, 12.3, 4.1, 1.4, 0.5, 0.2, and 0 nM. The final concentration of DMSO was 0.1%. The blank control well is with medium (0.1% DMSO).
(§8) b) Incubate cells in an incubatorother 72 hours;
(§9) a) Take out the 96-well cell culture plate and add 50 μl CTG reagent (CellTiter Glo kit, promega, Cat #G7573);
(§10) b) Shake the plate for 2 minutes and let cool at room temperature for 10 minutes,
(§11) c) Read luminous signal value with Perkin Elmer reader.
(§12) Analysis of Experimental Data
(§13) The data were analyzed by GraphPad Prism 6.0 software to obtain the fitting curve of compound activity.
(§14) Fining compound IC50 from nonlinear regression equation:
(§15) Y=Min+(Max−Min)/(1+10^((LogIC50−X)*slope));
(§16) X: Logarithm of compound concentration; Y: luminous signal
(§17) As illustrated in examples, IC50 value is within the following range for the compound of the present invention: “A” represents “IC50≤50 nM”; “B” represents “50 nM<IC50<100 nM”.

Ba/F3-L858R/T790M/C797S = Ba/F3-L858R/T790M/C797S (Homo sapiens, UniProt P00533, T790M/C797S/L858R, cells depend on it); assay: Ba/F3-L858R/T790M/C797S cell proliferation assay (CellTiter Glo, 72 h); type: cell-based; settings: CTG, numeric values, read-out: BaF3 L858R/T790M/C797S IC50
Experimental: as §1, §2, §3, §4, §5, §6, §7, §8, §9, §10, §11, §12, §13, §14, §15, §16, §17

[1] = system: A431 EGFR wild-type cell line; assay: A431 EGFR wild-type cell proliferation assay (CellTiter Glo, 72 h); type: cell-based; settings: Homo sapiens, A-431, CTG, read-out: A431 EGFR WT IC50
Experimental: as §1, §2, §3, §4, §5, §6, §7, §8, §9, §10, §11, §12, §13, §14, §15, §16, §17

[2] = Liver microsomal clearance test, monkey; type: in vitro ADME; settings: Monkey liver microsomes, 0.5 mg/mL, NADPH
Experimental: (§18) Test 3 Liver Microsomal Clearance Test
(§19) 1. Prepare 0.5 mg/mL liver microsome diluent containing K-butter and MgCl2:
(§20) 2.1 Take 356 μL of the liver microsome diluent prepared above and add it to the preset wells of the incubation plate, the number of multiple wells n=1, mark it as the incubation plate.
(§21) 2.2 Take 4 μL of the positive control compound Verapamil (50 μM) and the working solution of the test compound (200 μM) into the above incubation plate containing 356 μL of liver microsome diluent, and mix well (The dilution solvent from the stock solution to the working solution is a mixed solvent of acetonitrile: methanol: water=1:1:2, and the final concentration of DMSO is ≤0.5%),
(§22) 2.3 Place the incubation plate in a 37° C. thermostatic oscillator (at shaking speed of 100 rpm) for pre-incubation with 10 min.
(§23) 2.4 Add 40 μL of 10 mM NADPH (add 40 μL of K-buffer to the wells without NADPH) to each reaction well to start the reaction and start timing.
(§24) 3. Sample collection and treatment:
(§25) 3.1 After adding NADPH to start the reaction, immediately take out 50 μL of the sample and add it to the precipitation plate pre-added with 400 μL of stop solution, and shake on an oscillator at 600 rpm for 5 min at room temperature as a 0 min sample.
(§26) 3.2 At the predetermined time points of 5 min, 15 min and 45 min, take out 50 μL of sample from the incubation plate and add it to the precipitation plate. The subsequent steps were the same as the treatment of 0 min sample. 3.3 After balancing, centrifuge above precipitation plate at 3200 rpm for 10 min at 4° C.
(§27) 3.4 Take 50 μL of the supernatant after centrifugation and add it to pre-added 20% acetonitrile water at appropriate proportion, shake on an oscillator at 600 rpm for 2 min at room temperature, mix well, and put it into the LC-MS/MS sampler for sample injection.
as §12
1. […]

[3] = Liver microsomal clearance test, dog; type: in vitro ADME; settings: Dog liver microsomes, 0.5 mg/mL, NADPH
Experimental: as §18, §19, §20, §21, §22, §23, §24, §25, §26, §27, §12
1. […]

[4] = Liver microsomal clearance test, mice; type: in vitro ADME; settings: Mice liver microsomes, 0.5 mg/mL, NADPH
Experimental: as §18, §19, §20, §21, §22, §23, §24, §25, §26, §27, §12
1. […]

[5] = Liver microsomal clearance test, human; type: in vitro ADME; settings: Human liver microsomes, 0.5 mg/mL, NADPH
Experimental: as §18, §19, §20, §21, §22, §23, §24, §25, §26, §27, §12
1. […]

[6] = Liver microsomal clearance test, rat; type: in vitro ADME; settings: Rat liver microsomes, 0.5 mg/mL, NADPH
Experimental: as §18, §19, §20, §21, §22, §23, §24, §25, §26, §27, §12
1. […]

Sequence of Ba/F3-Δ19del/T790M/C797S (P00533 with tags, fused parts or gaps DEL746-750/T790M/C797S, form open): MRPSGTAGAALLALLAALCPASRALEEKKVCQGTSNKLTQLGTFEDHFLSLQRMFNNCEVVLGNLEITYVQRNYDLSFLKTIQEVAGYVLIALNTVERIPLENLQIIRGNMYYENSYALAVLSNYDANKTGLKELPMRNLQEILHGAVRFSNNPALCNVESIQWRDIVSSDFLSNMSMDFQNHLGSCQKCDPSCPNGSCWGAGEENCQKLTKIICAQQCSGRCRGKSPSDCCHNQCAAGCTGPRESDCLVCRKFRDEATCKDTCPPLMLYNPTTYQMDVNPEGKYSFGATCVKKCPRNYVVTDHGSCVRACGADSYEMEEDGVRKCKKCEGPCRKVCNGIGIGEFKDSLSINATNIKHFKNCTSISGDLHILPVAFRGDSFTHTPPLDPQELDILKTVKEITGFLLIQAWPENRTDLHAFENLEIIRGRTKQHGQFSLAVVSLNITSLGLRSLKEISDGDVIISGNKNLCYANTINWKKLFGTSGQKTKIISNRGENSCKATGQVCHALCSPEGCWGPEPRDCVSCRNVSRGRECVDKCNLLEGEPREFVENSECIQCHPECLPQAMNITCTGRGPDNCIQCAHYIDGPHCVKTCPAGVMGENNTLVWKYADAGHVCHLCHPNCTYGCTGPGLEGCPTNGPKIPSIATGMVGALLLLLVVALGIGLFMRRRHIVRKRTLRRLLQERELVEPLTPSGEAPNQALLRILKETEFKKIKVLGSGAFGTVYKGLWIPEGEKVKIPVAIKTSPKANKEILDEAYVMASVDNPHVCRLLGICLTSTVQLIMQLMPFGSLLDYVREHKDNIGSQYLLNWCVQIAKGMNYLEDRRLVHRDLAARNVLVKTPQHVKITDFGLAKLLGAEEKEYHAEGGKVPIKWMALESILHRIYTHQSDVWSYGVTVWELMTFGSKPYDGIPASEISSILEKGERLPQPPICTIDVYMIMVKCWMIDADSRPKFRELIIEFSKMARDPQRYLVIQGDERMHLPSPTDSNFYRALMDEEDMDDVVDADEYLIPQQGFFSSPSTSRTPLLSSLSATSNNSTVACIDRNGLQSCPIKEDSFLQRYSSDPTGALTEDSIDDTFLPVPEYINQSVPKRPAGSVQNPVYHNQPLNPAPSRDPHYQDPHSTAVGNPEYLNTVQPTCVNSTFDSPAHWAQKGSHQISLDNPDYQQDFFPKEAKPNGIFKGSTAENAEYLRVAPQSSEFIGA
Sequence of EGFR Δ19del/T790M/C797S (P00533 with tags, fused parts or gaps DEL746-750/T790M/C797S, form open): as above
Sequence of Ba/F3-L858R/T790M/C797S (P00533 whole entry T790M/C797S/L858R): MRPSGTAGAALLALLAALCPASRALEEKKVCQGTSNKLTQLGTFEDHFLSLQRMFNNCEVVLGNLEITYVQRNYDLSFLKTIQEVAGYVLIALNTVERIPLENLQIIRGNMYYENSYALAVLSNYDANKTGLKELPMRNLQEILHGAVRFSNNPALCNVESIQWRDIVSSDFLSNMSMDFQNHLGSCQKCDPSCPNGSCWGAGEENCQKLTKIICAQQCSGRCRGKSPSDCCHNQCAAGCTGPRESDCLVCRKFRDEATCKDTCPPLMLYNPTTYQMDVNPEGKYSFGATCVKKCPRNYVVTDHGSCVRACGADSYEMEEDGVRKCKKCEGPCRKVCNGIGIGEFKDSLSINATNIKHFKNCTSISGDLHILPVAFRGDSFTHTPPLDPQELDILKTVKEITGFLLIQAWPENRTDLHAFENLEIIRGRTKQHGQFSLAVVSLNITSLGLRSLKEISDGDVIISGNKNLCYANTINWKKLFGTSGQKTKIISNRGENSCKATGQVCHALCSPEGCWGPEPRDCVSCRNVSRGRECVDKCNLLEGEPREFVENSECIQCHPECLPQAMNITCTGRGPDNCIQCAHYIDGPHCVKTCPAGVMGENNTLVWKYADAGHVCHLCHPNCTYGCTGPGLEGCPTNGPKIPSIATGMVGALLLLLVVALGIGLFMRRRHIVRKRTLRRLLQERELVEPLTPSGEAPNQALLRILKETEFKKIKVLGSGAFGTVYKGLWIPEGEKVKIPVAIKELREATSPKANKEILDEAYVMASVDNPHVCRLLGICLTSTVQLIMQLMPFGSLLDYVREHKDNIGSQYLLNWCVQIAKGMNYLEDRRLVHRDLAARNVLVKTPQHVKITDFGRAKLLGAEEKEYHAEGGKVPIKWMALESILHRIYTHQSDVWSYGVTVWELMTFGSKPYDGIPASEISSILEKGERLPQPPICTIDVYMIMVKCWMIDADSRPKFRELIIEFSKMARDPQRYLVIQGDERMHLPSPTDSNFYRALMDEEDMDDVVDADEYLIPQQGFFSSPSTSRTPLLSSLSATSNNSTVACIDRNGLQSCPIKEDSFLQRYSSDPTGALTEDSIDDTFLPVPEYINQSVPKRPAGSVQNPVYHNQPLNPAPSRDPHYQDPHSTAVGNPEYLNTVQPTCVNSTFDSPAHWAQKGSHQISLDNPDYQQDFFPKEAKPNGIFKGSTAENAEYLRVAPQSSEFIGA

SMILES	IC50 (EGFR Δ19del/T790M/C797S; numeric values) [nM]	GI50 (Ba/F3-Δ19del/T790M/C797S) [nM]	GI50 (Ba/F3-L858R/T790M/C797S) [nM]	IC50 [1] [nM]	Instrinsic clearance of liver microsomal protein, CLint [2] [μL/min/mg proteins]	IC50 (EGFR Δ19del/T790M/C797S; class symbols) [nM]	Instrinsic clearance of liver microsomal protein, CLint [3] [μL/min/mg proteins]	Instrinsic clearance of liver microsomal protein, CLint [4] [μL/min/mg proteins]	Instrinsic clearance of liver microsomal protein, CLint [5] [μL/min/mg proteins]	Instrinsic clearance of liver microsomal protein, CLint [6] [μL/min/mg proteins]
COc1cc(N2CCN(C3CCCC3)CC2)c(-c2cnn(C)c2)cc1Nc1ncc(Br)c(Nc2ccc(C)c(C)c2P(C)(C)=O)n1 [Compound 26, (6-((5-Bromo-2-((4-(4-cyclopentylpiperazine-1-yl)-2-methoxy-5-(1-methyl-1H-pyrazole-4-yl)phenyl)amino)pyrimidin-4-yl)amino)-2,3-dimethylphenyl)dimethylphoshine oxide]	0.2	4.6	2.8	241						
COc1cc(N2CCC(N3CCCCC3)CC2)c(-c2cnn(C)c2)cc1Nc1ncc(Cl)c(Nc2ccc3nccnc3c2P(C)(C)=O)n1 [Compound 5, (6-((2-((4-([1,4′-Dipiperidine]-1′-yl)-2-methoxy-5-(1-methyl-1H-pyrazole-4-yl)phenyl)amino)-5-chloropyrimidin-4-yl)amino)quinoxalin-5-yl)dimethylphosphine oxide]		3	6.5	114	43.2	≤ 1	25.8	11.2	15.4	0.8
CCn1cc(-c2cc(Nc3ncc(Br)c(Nc4ccc(C)c(C)c4P(C)(C)=O)n3)c(OC)cc2N2CCC(N3CCN(C)CC3)CC2)cn1 [Compound 22, (6-((5-Bromo-2-((5-(1-ethyl-1h-pyrazol-4-yl)-2methoxy-4-(4-(4-methylpiperazine-1-yl)piperidin-1-yl)phenyl)amino)pyrimidine-4-yl)amino)-2,3-dimethylphenyl)dimethylphosphine oxide]	4.2	24.6	31.1	3260						
COc1cc(N2CCOCC2)c(-c2cnn(C)c2)cc1Nc1ncc(Cl)c(Nc2ccc3nccnc3c2P(C)(C)=O)n1 [Compound 9]	0.3	8	16.8	252						
COc1cc(N2CCC(N(C)C)CC2)c(-c2cnn(C)c2)cc1Nc1ncc(Cl)c(Nc2ccc3nccnc3c2P(C)(C)=O)n1 [Compound 2]	0.2	6.5	18.3	110						

Now those with a lower GI50 (Ba/F3-Δ19del/T790M/C797S), led by results:

IC50 (EGFR Δ19del/T790M/C797S; numeric values) [nM]	GI50 (Ba/F3-Δ19del/T790M/C797S) [nM]	GI50 (Ba/F3-L858R/T790M/C797S) [nM]	IC50 [1] [nM]	Instrinsic clearance of liver microsomal protein, CLint [2] [μL/min/mg proteins]	IC50 (EGFR Δ19del/T790M/C797S; class symbols) [nM]	Instrinsic clearance of liver microsomal protein, CLint [3] [μL/min/mg proteins]	Instrinsic clearance of liver microsomal protein, CLint [4] [μL/min/mg proteins]	Instrinsic clearance of liver microsomal protein, CLint [5] [μL/min/mg proteins]	Instrinsic clearance of liver microsomal protein, CLint [6] [μL/min/mg proteins]	SMILES
0.3	2.5	4	107							COc1cc(N2CCN(C3CCCC3)CC2)c(-c2cnn(C)c2)cc1Nc1ncc(Br)c(Nc2ccc3nccnc3c2P(C)(C)=O)n1 [Compound 25, (6-((5-Bromo-2-((4-(4-cyclopentylpiperazine-1yl)-2-methoxy-5-(1-methyl-1H-pyrozole-4-yl)phenyl)amino)pyrimidin-4-yl)amino)quinoxalin-5-yl) dimethylphosphine oxide]
0.31	1	6.6	201							COc1cc(N2CCC(N3CCN(C)CC3)CC2)c(-c2cnn(C)c2)cc1Nc1ncc(Cl)c(Nc2ccc3nc(C4CC4)ccc3c2P(C)(C)=O)n1 [Compound 28, (6-((5-Chloro-2-((2-methoxy-5-(1-methyl-1H-pyrazol-4-yl)-4-(4-(4-methylpiperazine-1-yl)piperidine-1-yl)phenyl)amino)pyrimidin-4-yl)amino)-2-cyclopropylquinolin-5-yl)dimethylphosphine oxide]
0.2	0.7	0.4	152							CCn1cc(-c2cc(Nc3ncc(Br)c(Nc4ccc(C)c(C)c4P(C)(C)=O)n3)c(OC)cc2N2CCC(N3CCCCC3)CC2)cn1 [Compound 20]
0.3	0.7	3.6	465							CCn1cc(-c2cc(Nc3ncc(Br)c(Nc4ccc(C)c(C)c4P(C)(C)=O)n3)c(OC)cc2N2CCOCC2)cn1 [Compound 21]
